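Interpolation was linear, between the two tested concentrations surrounding the appropriate level; five concentrations were tested over 48 hours in 96-well plates. Abbreviation: GI50, concentration required for 50% inhibition of growth.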 Activity calls are given as the source filed them. Rule as the data show it: active = GI50 up to about 1.1 µM and inactive = higher.
Key:
Experiment in all cases: DTP human tumour cell line panel, 48 h
HT-29 = tested on: HT-29
UO-31 = tested on: UO-31
TK-10 = tested on: TK-10
T47D = tested on: T47D
OVCAR-8 = tested on: OVCAR-8
MOLT-4 = tested on: MOLT-4
EKVX = tested on: EKVX
A498 = tested on: A498
NCI-H23 = tested on: NCI-H23
SNB-19 = tested on: SNB-19
HOP-62 = tested on: HOP-62
SW-620 = tested on: SW-620
LOX IMVI = tested on: LOX IMVI
ACHN = tested on: ACHN
UACC-257 = tested on: UACC-257
CCRF-CEM = tested on: CCRF-CEM
RXF 393 = tested on: RXF 393
U-251 = tested on: U-251
MDA-MB-435 = tested on: MDA-MB-435
NCI-H460 = tested on: NCI-H460

Structure (SMILES) | GI50 (HT-29) | GI50 (UO-31) | GI50 (TK-10) | GI50 (T47D) | GI50 (OVCAR-8) | GI50 (MOLT-4) | GI50 (EKVX) | GI50 (A498) | GI50 (NCI-H23) | GI50 (SNB-19) | GI50 (HOP-62) | GI50 (SW-620) | GI50 (LOX IMVI) | GI50 (ACHN) | GI50 (UACC-257) | GI50 (CCRF-CEM) | GI50 (RXF 393) | GI50 (U-251) | GI50 (MDA-MB-435) | GI50 (NCI-H460)
Oc1cc(-c2ccc3ccccc3c2)nc2ncc(Cl)cc12 | 5.66 µM (inactive) | 14.4 µM (inactive) | 12.7 µM (inactive) | 18.8 µM (inactive) | 6.15 µM (inactive) | 3.27 µM (inactive) | 14.5 µM (inactive) | 12.1 µM (inactive) | 7.14 µM (inactive) | 9.31 µM (inactive) | 8.59 µM (inactive) | 4.12 µM (inactive) | 5.33 µM (inactive) | 4.9 µM (inactive) | 9.06 µM (inactive) | 3.48 µM (inactive) |  |  |  | 
O=c1oc2ccc3ccccc3c2cc1-c1cn2c(n1)sc1ccccc12 | > 100 µM (inactive) | > 100 µM (inactive) | > 100 µM (inactive) |  | > 100 µM (inactive) | 3.06 µM (inactive) | 90.8 µM (inactive) | > 100 µM (inactive) | > 100 µM (inactive) | > 100 µM (inactive) | > 100 µM (inactive) | > 100 µM (inactive) | > 100 µM (inactive) | > 100 µM (inactive) | > 100 µM (inactive) | > 100 µM (inactive) | > 100 µM (inactive) | > 100 µM (inactive) | > 100 µM (inactive) | > 100 µM (inactive)
CCC1(c2ccncc2)CCC(=O)NC1=O (stereo not drawn) [ROGLETIMIDE] | > 100 µM (inactive) | > 100 µM (inactive) | > 100 µM (inactive) |  | > 100 µM (inactive) | > 100 µM (inactive) | > 100 µM (inactive) | > 100 µM (inactive) | > 100 µM (inactive) | > 100 µM (inactive) | > 100 µM (inactive) | > 100 µM (inactive) | > 100 µM (inactive) | > 100 µM (inactive) | > 100 µM (inactive) | > 100 µM (inactive) | > 100 µM (inactive) | > 100 µM (inactive) |  | > 100 µM (inactive)
O=C1C=CC(CC(=O)c2ccc3ccccc3c2)O1 (stereo not drawn) | 19.1 µM (inactive) | 24.3 µM (inactive) | 32.8 µM (inactive) |  | 18.4 µM (inactive) | 21.7 µM (inactive) | > 100 µM (inactive) | 20 µM (inactive) | 20.7 µM (inactive) | 32.7 µM (inactive) | 21.5 µM (inactive) | 26.5 µM (inactive) | 21 µM (inactive) | 37.3 µM (inactive) | 47.6 µM (inactive) | 23.2 µM (inactive) | 20.5 µM (inactive) | 18.2 µM (inactive) |  | 24.2 µM (inactive)
O=C(O)c1ccc(C2COc3ccc(Cl)cc3C2)cc1 (stereo not drawn) | > 100 µM (inactive) | > 100 µM (inactive) | > 100 µM (inactive) |  | > 100 µM (inactive) | > 100 µM (inactive) | > 100 µM (inactive) | > 100 µM (inactive) | > 100 µM (inactive) | > 100 µM (inactive) | > 100 µM (inactive) | > 100 µM (inactive) | > 100 µM (inactive) | > 100 µM (inactive) | > 100 µM (inactive) | > 100 µM (inactive) | > 100 µM (inactive) | > 100 µM (inactive) |  | > 100 µM (inactive)
Cc1ccccc1NC(=O)C1C(=O)N(c2ccccc2C)C(=O)/C1=N\N (stereo not drawn) | > 100 µM (inactive) | > 100 µM (inactive) |  |  | > 100 µM (inactive) | > 100 µM (inactive) | > 100 µM (inactive) | > 100 µM (inactive) | > 100 µM (inactive) | > 100 µM (inactive) | > 100 µM (inactive) | > 100 µM (inactive) | > 100 µM (inactive) | > 100 µM (inactive) | > 100 µM (inactive) | > 100 µM (inactive) | > 100 µM (inactive) | > 100 µM (inactive) |  | > 100 µM (inactive)
Clc1ccccc1CN1COc2c(ccc3cccnc23)C1 |  | 1.8 µM (inactive) | 10.4 µM (inactive) |  | 4.19 µM (inactive) | 2.22 µM (inactive) | 4.46 µM (inactive) | 8.24 µM (inactive) | 1.62 µM (inactive) | 11.8 µM (inactive) | 2.69 µM (inactive) | 3.42 µM (inactive) | 4.4 µM (inactive) | 3.72 µM (inactive) | 2.72 µM (inactive) | 0.405 µM (active) | 3.4 µM (inactive) | 5.6 µM (inactive) |  | 5.19 µM (inactive)
